From PubChem BioAssay (NCI)
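How tested: cells in 96-well plates exposed to compound for 48 hours at five concentrations. At the GI50, growth is halved. TGI: total growth inhibition.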

What was measured:
Assay in all cases: growth of human tumour cells (NCI), 48 h
SK-MEL-2 melanoma = tested on: SK-MEL-2 melanoma
SNB-19 CNS = tested on: SNB-19 CNS
LOX IMVI melanoma = tested on: LOX IMVI melanoma
MALME-3M melanoma = tested on: MALME-3M melanoma
EKVX NSCLC = tested on: EKVX NSCLC
NCI/ADR-RES ovarian = tested on: NCI/ADR-RES ovarian
786-0 renal = tested on: 786-0 renal
UO-31 renal = tested on: UO-31 renal
BT-549 breast = tested on: BT-549 breast
OVCAR-3 ovarian = tested on: OVCAR-3 ovarian
PC-3 prostate = tested on: PC-3 prostate
NCI-H522 lung = tested on: NCI-H522 lung
MDA-MB-435 = tested on: MDA-MB-435
DU-145 prostate = tested on: DU-145 prostate
RXF 393 renal = tested on: RXF 393 renal
MDA-MB-468 breast = tested on: MDA-MB-468 breast
HOP-62 NSCLC = tested on: HOP-62 NSCLC
COLO 205 colon = tested on: COLO 205 colon
CAKI-1 renal = tested on: CAKI-1 renal
A498 renal = tested on: A498 renal
A549 NSCLC = tested on: A549 NSCLC
SF-539 CNS = tested on: SF-539 CNS
SF-268 CNS = tested on: SF-268 CNS
OVCAR-4 ovarian = tested on: OVCAR-4 ovarian
ACHN renal = tested on: ACHN renal
SK-OV-3 ovarian = tested on: SK-OV-3 ovarian
TK-10 renal = tested on: TK-10 renal
SN12C renal = tested on: SN12C renal
HCC-2998 colon = tested on: HCC-2998 colon
IGROV1 ovarian = tested on: IGROV1 ovarian

CCC(C)S(=O)(=O)c1oc(-c2ccc(C)cc2)nc1S(=O)(=O)c1ccccc1 (centres undefined)
TGI (SK-MEL-2 melanoma): 16.2 µM | GI50 (SNB-19 CNS): 12.9 µM | TGI (SNB-19 CNS): 25.5 µM | GI50 (LOX IMVI melanoma): 1.23 µM | TGI (LOX IMVI melanoma): 2.58 µM | GI50 (MALME-3M melanoma): 1.65 µM | TGI (MALME-3M melanoma): 3.03 µM | GI50 (EKVX NSCLC): 1.98 µM | TGI (EKVX NSCLC): 4.21 µM | GI50 (NCI/ADR-RES ovarian): 2.35 µM | TGI (NCI/ADR-RES ovarian): 5.7 µM | GI50 (786-0 renal): 1.67 µM | TGI (786-0 renal): 3.37 µM | GI50 (UO-31 renal): 1.52 µM | TGI (UO-31 renal): 2.85 µM | GI50 (BT-549 breast): 1.81 µM | TGI (BT-549 breast): 3.42 µM | GI50 (OVCAR-3 ovarian): 1.63 µM | TGI (OVCAR-3 ovarian): 3.23 µM | GI50 (PC-3 prostate): 3.14 µM | TGI (PC-3 prostate): 11.2 µM | GI50 (NCI-H522 lung): 1.31 µM | TGI (NCI-H522 lung): 2.77 µM | GI50 (MDA-MB-435): 1.74 µM | TGI (MDA-MB-435): 3.85 µM | GI50 (DU-145 prostate): 1.98 µM | TGI (DU-145 prostate): 4.57 µM | GI50 (RXF 393 renal): 1.48 µM | TGI (RXF 393 renal): 3.1 µM | GI50 (MDA-MB-468 breast): 1.43 µM | TGI (MDA-MB-468 breast): 2.99 µM | GI50 (HOP-62 NSCLC): 15.8 µM | TGI (HOP-62 NSCLC): 33.2 µM | GI50 (COLO 205 colon): 2.67 µM | TGI (COLO 205 colon): 6.02 µM | GI50 (CAKI-1 renal): 1.53 µM | TGI (CAKI-1 renal): 3.15 µM | GI50 (A498 renal): 16.9 µM | TGI (A498 renal): 30.7 µM | GI50 (A549 NSCLC): 13.5 µM | TGI (A549 NSCLC): 32.3 µM | GI50 (SF-539 CNS): 1.67 µM | TGI (SF-539 CNS): 3.03 µM | GI50 (SF-268 CNS): 2.65 µM | TGI (SF-268 CNS): 8.81 µM | GI50 (OVCAR-4 ovarian): 2.67 µM | TGI (OVCAR-4 ovarian): 7.84 µM | GI50 (ACHN renal): 1.65 µM | TGI (ACHN renal): 3.01 µM | GI50 (SK-OV-3 ovarian): 17.2 µM | TGI (SK-OV-3 ovarian): 33.3 µM | GI50 (TK-10 renal): 1.73 µM | TGI (TK-10 renal): 3.44 µM | GI50 (SN12C renal): 1.72 µM | TGI (SN12C renal): 3.34 µM | GI50 (HCC-2998 colon): 1.74 µM | TGI (HCC-2998 colon): 3.3 µM | GI50 (IGROV1 ovarian): 1.96 µM | TGI (IGROV1 ovarian): 3.75 µM
